Source: patent US20090068143A1, “ORALLY EFFECTIVE C[…]” (priority 2005, published 2009)

Key:
[1] = Actual solubility in aqueous buffers / cosolvent (HPLC, spectrophotometer); type: physicochemical
Description: The actual solubility of certain compounds of the invention was assessed in aqueous buffers and final concentration of compounds was determined using HPLC and spectrophotometer methodologies. […] Therefore, compounds that were designed following the same rational yielded unexpectedly divergent outcome, for instance in connection with solubility in aqueous solutions.
It should be noted that following lyophilization compound 18F could be dissolved in 80 mM phosphate buffer at pH 6.9 even more efficiently at concentrations up to 60 mg/ml, about two order of magnitudes higher than expected.
Approximately 11 g of compound 18F were lyophilized in one lyophilization cycle. A cosolvent mixture comprising 38.6% w/v of compound 18F was divided into several dishes to fit the lyophilization chamber. As a result of lyophilization, a dry product with improved physical properties such as flowability and less stickiness was obtained.

[2] = Stability in aqueous solutions; type: physicochemical; conditions: 95 μg/ml in citrate buffer (pH 7.1), 4° C.
Description: Stability of compounds of the invention in aqueous solutions was compared. Compounds were dissolved in buffer phosphate solutions and their concentration monitored using HPLC and spectrophotometer methodology. While compound 18F at concentration of 2 mg/ml in phosphate buffer (pH 7.0) was stable for at least 3 months at 4° C., compound 18B at concentration of 95 μg/ml in citrate buffer (pH 7.1) readily hydrolyzed in less than 24 hours at 4° C. Therefore, compounds that were designed following the same rational yielded unexpectedly divergent outcome, for instance in connection with stability in aqueous solutions.

[3] = system: iNOS; assay: iNOS gene expression in LPS activated RAW 264.7 macrophages (real-time RT-PCR); type: cell-based, mouse; conditions: for inhibition of iNOS gene expression: 10 μM, 1 h pre-treatment, 3 hrs after LPS activation
Description: (§1) RAW 264.7 macrophages, a mouse cell line (ATCC # TIB 71), were grown in Dulbecco's modified Eagle's medium (DMEM) with 4 mM L-glutamine adjusted to contain 1.5 g/L sodium bicarbonate, 4.5 g/L glucose, and 10% heat inactivated fetal bovine serum. Cells were grown in tissue culture flasks and seeded at appropriate density into 6 wells tissue culture plates. Four million Raw cells in half a milliliter were stimulated with 1 μg/ml Lipopolysaccharide E. coli 055:B5 (DIFCO Laboratories). The mouse macrophages were pre-treated for one hour with controls or 10 μM of test compounds, and later on activated with LPS. RNA samples were extracted from the cells 3 hrs after activation and iNOS gene expression levels were analyzed by real-time RT-PCR as previously described. For western blot analysis, compounds were tested at 1, 5 and 10 μM and cells were harvested 24 hrs after LPS stimulation. Supernatant were collected and NO secretion was analyzed using ELISA. Cells were washed 3 times with cold PBS, scrapped and lyzed in 100 μl cell lysis buffer containing 20 mM HEPES, pH 7.6, 150 mM NaCl, 1.5 mM MgCl2, 0.2 mM EDTA, 1% Triton X-100, 10% glycerol, 1 mM DTT, 1 mM PMSF, 10 μg/ml aprotinin. 5 µg/ml leupeptin, 10 mM p-nitrophenyl phosphate, 100 mM β-glycerophosphate, 1 mM sodium fluoride, and 0.1 μM sodium orthovanadate. Cells were lyzed on ice for 10 minutes before further processing.
The results of this experiment are expressed as fold activation of iNOS over non-activated macrophages, after normalization to cyclophilin A expression. Compound 18A inhibits 63% of iNOS gene expression, and compounds 18B, 18E and 18F inhibit 55%, 25% and 100% respectively. […] This surprising observation strengthen the fact that compounds of the invention, though chemically related, have distinct and unexpected properties.

[4] = system: visceral pain; assay: Visceral pain, acetic acid induced writhing responses; type: in vivo, ICR mice; conditions: for inhibition of writhing responses as compared to vehicle treated group: 2 mg/kg i.v.
Description: For the i.v. part of the study, compounds were dissolved in CREMOPHOR®:Ethanol and diluted 1:20 in saline prior to injection, fifteen minutes before pain induction. When compounds were delivered per os, they were dissolved in phosphate buffer or in CREMOPHOR®:Ethanol as previously described and administered 1 hour before pain induction. Each treatment group, except for controls comprising at least 30 animals, was composed of at least 6 animals. Fifteen or sixty minutes later, depending on the route selected for drug administration, the mice were injected i.p. with 10 ml/kg of 0.6% acetic acid and the number of visceral pain related behaviors (writhing, stretching, contractions of the abdomen accompanied by an elongation of the body and extension of the hind limbs) is counted over a period of 5 minutes, starting 5 minutes after the acetic acid administration. These visceral pain related behaviors are globally defined as writhing responses (WR). The results are expressed as mean number of writhing responses±SEM. Data were analyzed using analysis of variance (ANOVA) followed by post-hoc Fisher test. A value of p<0.05 was considered to be statistically significant and is indicated on the figure by an asterisk over the relevant treatment group.
The following results were obtained at 2 mg/kg i.v. of test compounds or, in the case of the study performed with cannabinoid receptor antagonists, 1 mg/kg test compound or antagonist alone and 1 mg/kg test compound+1 mg/kg antagonist. In a separate study, it was shown that analgesic activity of compounds of the invention was dose related.

[5] = biological target: CB2 receptor (Homo sapiens, UniProt P34972); assay: CB2 binding assay
Sequence of CB2 receptor (P34972 whole entry): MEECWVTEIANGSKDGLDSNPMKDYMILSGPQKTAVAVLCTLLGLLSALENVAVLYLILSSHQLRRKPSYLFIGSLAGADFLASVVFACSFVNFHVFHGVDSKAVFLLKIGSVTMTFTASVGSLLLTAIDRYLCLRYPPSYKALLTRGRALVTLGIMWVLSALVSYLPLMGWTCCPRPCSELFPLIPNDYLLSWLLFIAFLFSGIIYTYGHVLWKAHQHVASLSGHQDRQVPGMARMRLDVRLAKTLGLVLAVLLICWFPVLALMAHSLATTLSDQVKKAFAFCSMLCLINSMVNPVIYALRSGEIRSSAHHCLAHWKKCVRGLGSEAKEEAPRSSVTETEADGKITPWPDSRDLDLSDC

[6] = biological target: CB1 receptor (Homo sapiens, UniProt P21554); assay: CB1 binding assay
Sequence of CB1 receptor (P21554 whole entry): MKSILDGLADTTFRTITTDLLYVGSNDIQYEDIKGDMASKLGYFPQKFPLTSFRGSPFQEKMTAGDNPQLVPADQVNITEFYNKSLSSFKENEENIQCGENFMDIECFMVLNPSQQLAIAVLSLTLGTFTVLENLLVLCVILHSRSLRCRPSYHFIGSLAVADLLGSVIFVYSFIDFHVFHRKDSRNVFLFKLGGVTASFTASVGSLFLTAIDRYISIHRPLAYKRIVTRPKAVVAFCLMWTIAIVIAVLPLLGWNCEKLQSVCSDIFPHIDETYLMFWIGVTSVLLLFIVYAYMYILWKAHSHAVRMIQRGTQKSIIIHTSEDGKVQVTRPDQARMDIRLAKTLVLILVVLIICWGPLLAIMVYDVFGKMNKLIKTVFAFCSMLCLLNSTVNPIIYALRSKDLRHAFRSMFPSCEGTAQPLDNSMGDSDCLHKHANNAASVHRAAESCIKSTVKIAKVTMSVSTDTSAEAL

[7] = system: MBP induced acute EAE; assay: MBP induced acute EAE; type: in vivo, Lewis rats; conditions: 0.5-1 mg/kg i.v., 3 days after clinical onset
Description: In the present study, EAE was induced by injection of Myelin Basic Protein (MBP), a method known to model the acute phase of MS. In this model the onset of the disease is observed by the appearance of clinical symptoms about 10 days after induction. The disease progresses and the clinical score increases and peaks around day 15 and spontaneous recovery is observed around day 23 after induction of the disease.
Female Lewis rats (average body weight 130-180 g, Harlan, Israel) were injected s.c. into the hind paws with 25 μg of purified guinea pig myelin basic protein (MBP, Sigma) emulsified in 0.1 ml of Complete Freund's Adjuvant (Difco). Animals were maintained on a 12 hours light/12 hours dark regimen, at a constant temperature of 22° C., with food and water ad libitum. Starting from day 8 following induction, animals were followed up on a daily basis. The results are recorded as clinical score; score of 0 indicates a normal animal with no clinical signs, 0.5 indicates a loss of tonicity in the tail's distal part, 1 indicates whole tail paralysis, 1.5 indicates hind legs weakness in one leg, 2 indicates hind legs weakness in two legs, 2.5 indicates fore legs paralysis in one leg, 3 indicates paralysis of all four legs, 4 indicates complete body paralysis and moribund state and 5 indicates death. The clinical score of the animals is recorded for 15 days following onset of disease until the end of the study 25 days following induction and the area under the curve (AUC) is calculated over this period of time.
Few routes of administration were assessed and the treatments were either administered intravenously (in CE vehicle) or orally by gavage (in PB vehicle) at volume dose of 5 ml/kg.
Results are expressed as mean±SEM and the differences between the treatment groups were analyzed by analysis of variance (ANOVA) followed by Tukey's post hoc test. A value of p<0.05 was considered to be statistically significant and is indicated on the figure by an asterisk over the relevant treatment group.
Compound 18A was dissolved in CREMOPHOR EL®:ethanol and further diluted in physiological buffer prior to i.v. administration. It is now disclosed that compound 18F could be dissolved directly in 80 mM phosphate buffer (pH 6.4) and administered p.o. Compound 18F was administered by oral gavage at doses of 20, 30, 40, 50 and 60 mg/kg to animals showing clinical signs of the disease. Each treatment group comprised at least 10 animals at onset of disease. At some doses, experiments were repeated up to four times.

[8] = system: RAW 264.7 macrophages; assay: NO secretion of LPS activated RAW 264.7 macrophages (ELISA); type: cell-based; conditions: Mus musculus, RAW264.7, 24 hrs after LPS stimulation
Description: as §1, with “processing. […]” for “processing.”

[9] = system: iNOS; assay: iNOS protein expression in activated macrophages (western blot); type: cell-based, mouse; conditions: 1, 5 and 10 μM, 24 hrs after LPS stimulation
Description: as §1, with “Cells were washed 3 times with cold PBS, scrapped and lyzed in 100 μl cell lysis buffer containing 20 mM HEPES, pH 7.6, 150 mM NaCl, 1.5 mM MgCl2, 0.2 mM EDTA, 1% Triton X-100, 10% glycerol, 1 mM DTT, 1 mM PMSF, 10 μg/ml aprotinin. 5 µg/ml leupeptin, 10 mM p-nitrophenyl phosphate, 100 mM β-glycerophosphate, 1 mM sodium fluoride, and 0.1 μM sodium orthovanadate. Cells were lyzed on ice for 10 minutes before further processing.” left out
To assess correlation between gene expression and protein expression, protein extracts were prepared from the various treated activated macrophages. […] Primary antibodies against cyclophilin A were used as control (Upstate, Cat# 07-313), and the amount of iNOS was assessed using NOS2 (C11) Santa Cruz antibodies (Cat# SC-7271) were hybridized for 2 hours at room temperature. […]

[10] = system: Taxol® induced neuropathic pain; assay: Taxol® induced neuropathic pain; type: in vivo, Sprague Dawley rats; conditions: gabapentin 100 mg/kg i.p., morphine 5 mg/kg i.p.; not statistically significant
Description: Male Sprague Dawley rats (average body weight 150-200 g, Harlan, Israel) were administered i.p. with 6 mg/kg Taxol® (Bristol Myers Squibb, USA) every other day for 9 days. On day 13, baseline pain threshold was measured. One hour later, the animals were administered with 5 ml/kg i.p. of vehicle (PB) only and pain threshold was re-established. After an additional hour animals were treated with various doses of compound 18F ranging from 0.5 mg/kg up to 10 mg/kg administered i.p. Morphine at 5 mg/kg i.p. and gabapentin at 100 mg/kg i.p served as positive controls. Each treatment group comprised at least eight animals. One hour post drug administration pain threshold was monitored using thermal and mechanical stimuli as previously described. At the end of the study, rats were euthanized with sodium pentobarbitone 100 mg/kg i.p. Sample rats were then transfused with saline and heparinized 4% formaldehyde solution. The L4-L5 area of the spinal cord and the sciatic nerve were taken for histopathology assessment.
The time latencies for thermal hyperalgesia, and force needed to induce pain of the different treatment groups are compared, using one way ANOVA (analysis of variance), followed by Duncan's post hoc test. A p<0.05 value was considered statistically significant and is indicated on the figure by an asterisk over the relevant treatment group.

[11] = system: EAE; conditions: 40 mg/kg p.o. daily for 21 days from disease induction, cited from earlier work
[12] = oral administration, on an average; cited from earlier work

Compound: CCCCCCC(C)(C)c1cc(O)c([C@H]2CC(=O)C3CC2C3(C)C)c(OC(=O)CCC(=O)O)c1 (single isomer, unassigned; (-)) [Compound 18B, (−)-4-{4-[1,1-dimethylheptyl]-2-succinate-6-hydroxy-phenyl}-6,6-dimethyl-bicyclo[3.1.1]heptan-2-one]
- divergence of solubility from prediction ([1]; aqueous citrate buffer (pH 7.1) vs calculated): < 4 fold
- solubility ([1]; aqueous citrate buffer, pH 7.1, aqueous buffer, thermodynamic from solid, aqueous citrate buffer (pH 7.1), read-out: actual solubility): ≤ 95 µg/mL
- time to hydrolysis in solution [2]: less than 24 hours
- inhibition of iNOS gene expression [3]: 55%
- inhibition of writhing responses as compared to vehicle treated group [4]: 95%
- inhibition of pain response as compared to untreated animals ([4]; 10 mg/kg p.o. in phosphate buffer): 88%
- IC50 [5]: 1.2 nM
- IC50 [6]: 41 nM

Compound: CCCCCCC(C)(C)c1cc(O)c([C@H]2CC(=O)[C@H]3C[C@@H]2C3(C)C)c(O)c1 [Compound 18A, (−)-4-[4-(1,1-Dimethylheptyl)-2,6-dihydroxy-phenyl]-6,6-dimethyl-bicyclo[3.1.1]heptan-2-one]
- reduction in AUC of clinical score [7]: 30-35%
- effect of CB1 or CB2 antagonists on iNOS inhibiting activity ([3]; 5 μM of SR-141716 and SR-144528): reversed by co-administration of either CB1 or CB2 antagonists
- inhibition of iNOS gene expression [3]: 63%
- inhibition at 10 µM [8]: 63%
- iNOS protein band (western blot) [9]: clear dose dependent disappearance of iNOS protein band
- inhibition of the number of writhing responses ([4]; 1 mg/kg i.v.): 90%
- effect of addition of CB1 antagonist on analgesic activity ([4]; 1 mg/kg i.v. + 1 mg/kg SR141716A): totally blocked
- effect of addition of CB2 antagonist on analgesic activity ([4]; 1 mg/kg i.v. + 1 mg/kg SR144528): did not affect
- inhibition of writhing responses as compared to vehicle treated group [4]: total inhibition
- inhibition of writhing responses ([4]; 10 mg/kg p.o. in CREMOPHOR®:Ethanol): 70%
- IC50 [5]: 1 nM
- IC50 [6]: 27.6 nM

Compound: NCC1(CC(=O)O)CCCCC1 [Gabapentin, reference compound]
- activity in visceral pain model ([4]; fumaric acid up to 5 mg/kg, Gabapentin up to 200 mg/kg, celecoxib up to 10 mg/kg): inactive
- effect on pain threshold [10]: trend of increasing the pain threshold

Compound: CCCCCc1cc(O)c2c(c1)OC(C)(C)[C@@H]1CC=C(C)C[C@@H]21 [Δ^8-THC, reference compound]
- solubility in aqueous buffer ([1]; in words): not soluble in aqueous buffer
- decrease of number of writhing responses as compared to the untreated group ([4]; 10 mg/kg p.o. in CREMOPHOR®:Ethanol, not statistically significant vs vehicle): 47%
- decrease of mean disease severity [11]: 20%
- mean disease severity ([11]; vehicle 5.5±0.8): 4.4±0.8

Compound: CCCCCc1cc(O)c2c(c1)OC(C)(C)[C@@H]1CCC(C)=C[C@@H]21 [Δ^9-THC, Δ^9-tetrahydrocannabinol]
- absolute bioavailability [12]: 13%
